One may read the IC50 as the point on the concentration scale where inhibition reaches its midpoint.

The target of assay [1] is T1, FLT3-D835Y (Homo sapiens, UniProt P36888, D835Y).
T1 construct: purchased Invitrogen PV3967
T1 sequence (P36888 27-993 D835Y): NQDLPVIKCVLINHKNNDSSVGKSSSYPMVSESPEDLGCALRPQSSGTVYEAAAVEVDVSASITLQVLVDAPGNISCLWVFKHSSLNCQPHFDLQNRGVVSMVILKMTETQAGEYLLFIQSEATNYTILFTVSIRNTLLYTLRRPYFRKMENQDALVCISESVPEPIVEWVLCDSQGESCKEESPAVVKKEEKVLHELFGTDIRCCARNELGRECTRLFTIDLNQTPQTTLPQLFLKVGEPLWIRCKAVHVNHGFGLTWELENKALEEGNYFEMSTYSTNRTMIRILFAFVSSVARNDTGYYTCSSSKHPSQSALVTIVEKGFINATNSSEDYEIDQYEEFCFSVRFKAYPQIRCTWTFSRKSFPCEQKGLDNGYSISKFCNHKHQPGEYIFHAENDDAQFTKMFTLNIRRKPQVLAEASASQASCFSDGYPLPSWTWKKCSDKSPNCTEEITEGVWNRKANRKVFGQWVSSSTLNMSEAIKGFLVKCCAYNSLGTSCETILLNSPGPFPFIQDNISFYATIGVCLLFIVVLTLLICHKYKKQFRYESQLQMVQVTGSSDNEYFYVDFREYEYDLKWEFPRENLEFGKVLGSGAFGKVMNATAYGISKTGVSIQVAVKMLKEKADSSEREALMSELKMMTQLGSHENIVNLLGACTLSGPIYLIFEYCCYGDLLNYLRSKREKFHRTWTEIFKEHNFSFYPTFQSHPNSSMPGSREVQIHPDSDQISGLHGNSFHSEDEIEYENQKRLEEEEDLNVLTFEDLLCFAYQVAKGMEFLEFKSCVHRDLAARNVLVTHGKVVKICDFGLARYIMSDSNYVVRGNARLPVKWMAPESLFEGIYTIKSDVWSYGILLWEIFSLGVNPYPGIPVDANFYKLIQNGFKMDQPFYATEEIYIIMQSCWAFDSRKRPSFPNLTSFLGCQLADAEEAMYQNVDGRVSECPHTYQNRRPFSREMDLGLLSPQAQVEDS
In words: FLT3-D835Y recombinant enzyme kinase assay (AlphaScreen). The class given is biochemical. The following applies: 8 pt, GMean. In short, it runs like this:
(§1)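 IC50 values are derived from reduced AlphaScreen signal as inhibitors block tyrosine phosphorylation of a biotinylated poly(Glu4-Tyr) peptide (30 nM) by recombinant kinase. FLT3 variants are run at 10 μM ATP, c-KIT at 100 μM.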
Background: In Alpha technology, singlet oxygen from a donor bead excites a nearby acceptor bead.

The target of assay [2] is T2, c-KIT (Homo sapiens, UniProt P10721).
T2 construct: purchased Millipore 14-559K
In words: c-KIT recombinant enzyme kinase assay (AlphaScreen). The class given is biochemical. The settings on record: 100 ATP, 8 pt. In short, it runs like this: as §1

T2 sequence (P10721 26-976): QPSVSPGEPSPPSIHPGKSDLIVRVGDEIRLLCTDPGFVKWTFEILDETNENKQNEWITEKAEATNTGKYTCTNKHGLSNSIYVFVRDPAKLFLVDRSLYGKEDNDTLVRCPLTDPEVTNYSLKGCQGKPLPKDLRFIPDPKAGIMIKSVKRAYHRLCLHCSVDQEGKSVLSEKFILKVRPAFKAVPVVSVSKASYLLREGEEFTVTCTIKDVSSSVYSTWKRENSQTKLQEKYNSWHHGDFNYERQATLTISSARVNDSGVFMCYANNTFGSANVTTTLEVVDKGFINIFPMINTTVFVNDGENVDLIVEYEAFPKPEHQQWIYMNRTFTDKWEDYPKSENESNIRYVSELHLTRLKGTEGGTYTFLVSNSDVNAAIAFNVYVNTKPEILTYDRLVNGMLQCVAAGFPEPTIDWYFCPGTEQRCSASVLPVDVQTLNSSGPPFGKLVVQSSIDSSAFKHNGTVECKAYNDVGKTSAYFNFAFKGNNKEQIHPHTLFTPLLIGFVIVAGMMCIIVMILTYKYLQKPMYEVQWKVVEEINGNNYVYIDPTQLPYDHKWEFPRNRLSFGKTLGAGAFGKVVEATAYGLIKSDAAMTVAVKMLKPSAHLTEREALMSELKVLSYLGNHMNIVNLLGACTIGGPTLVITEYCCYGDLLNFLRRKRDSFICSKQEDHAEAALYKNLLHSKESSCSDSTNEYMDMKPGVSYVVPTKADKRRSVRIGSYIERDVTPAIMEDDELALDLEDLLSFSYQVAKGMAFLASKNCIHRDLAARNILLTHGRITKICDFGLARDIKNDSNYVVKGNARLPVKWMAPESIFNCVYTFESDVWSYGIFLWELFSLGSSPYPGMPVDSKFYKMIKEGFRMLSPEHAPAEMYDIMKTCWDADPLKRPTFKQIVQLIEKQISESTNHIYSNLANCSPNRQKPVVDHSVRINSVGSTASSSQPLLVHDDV

`Cn1cc(Nc2ncc(-c3ccc(CC(=O)Nc4ccc(C(F)(F)F)nc4)cc3)cn2)cn1` [Compound P-0095, 2-[4-[2-[(1-methylpyrazol-4-yl)amino]pyrimidin-5-yl]phenyl]-N-[6-(trifluoromethyl)-3-pyridyl]acetamide]: the IC50 in assay [1] and in assay [2] was 0.0001 to 10 µM in each case.
With `Cn1cnc(Nc2ncc(-c3ccc(CC(=O)Nc4cncc(C(C)(F)F)c4)c(F)c3)cn2)c1` [Compound P-0103, N-[5-(1,1-difluoroethyl)-3-pyridyl]-2-[2-fluoro-4-[2-[(1-methylimidazol-4-yl)amino]pyrimidin-5-yl]phenyl]acetamide], the IC50 in assay [1] and in assay [2] was 0.0001 to 10 µM throughout.
As to `Cn1cc(Nc2ncc(-c3ccc(CC(=O)Nc4ccnc(C5CC5)c4)cc3)cn2)cn1` [Compound P-0097, N-(2-cyclopropyl-4-pyridyl)-2-[4-[2-[(1-methylpyrazol-4-yl)amino]pyrimidin-5-yl]phenyl]acetamide], the IC50 in assay [1] and in assay [2] was 0.0001 to 10 µM in each case.
`Cn1cc(Nc2ncc(-c3ccc(CC(=O)Nc4cccc(S(C)(=O)=O)c4)cc3)cn2)cn1` [Compound P-0155, 2-[4-[2-[(1-methylpyrazol-4-yl)amino]pyrimidin-5-yl]phenyl]-N-(3-methylsulfonylphenyl)acetamide]: the IC50 in assay [1] and in assay [2] was 0.0001 to 10 µM in each case.
Consider `Cn1cc(Nc2ncc(-c3ccc(CC(=O)Nc4cnnc(Cl)c4)cc3)cn2)cn1` [Compound P-0151, N-(6-chloropyridazin-4-yl)-2-[4-[2-[(1-methylpyrazol-4-yl)amino]pyrimidin-5-yl]phenyl]acetamide], for which the IC50 in assay [1] and in assay [2] was 0.0001 to 10 µM each time.
For `Cn1cnc(Nc2ncc(-c3ccc(CC(=O)Nc4cc(C(C)(F)F)ccn4)c(F)c3)cn2)c1` [Compound P-0102, N-[4-(1,1-difluoroethyl)-2-pyridyl]-2-[2-fluoro-4-[2-[(1-methylimidazol-4-yl)amino]pyrimidin-5-yl]phenyl]acetamide], the IC50 in assay [1] and in assay [2] was 0.0001 to 10 µM in each case.
Turning to `Cn1cnc(Nc2ncc(-c3ccc(CC(=O)Nc4cncc(C(F)(F)F)c4)cc3)cn2)c1` [Compound P-0167], the IC50 in assay [1] and in assay [2] was 0.0001 to 10 µM each time.
With `Cc1ncc(NC(=O)Cc2ccc(-c3cnc(Nc4cn(C)cn4)nc3)cc2F)cc1C(F)(F)F` [Compound P-0099, 2-[2-fluoro-4-[2-[(1-methylimidazol-4-yl)amino]pyrimidin-5-yl]phenyl]-N-[6-methyl-5-(trifluoromethyl)-3-pyridyl]acetamide], the IC50 in assay [1] and in assay [2] was 0.0001 to 10 µM each time.
Turning to `O=C(Cc1ccc(-c2cnc3[nH]c(-c4ccc(N5CCOCC5)nc4)cc3c2)c(F)c1)Nc1cncc(C(F)(F)F)c1` [Compound P-0198, 2-[3-fluoro-4-[2-(6-morpholino-3-pyridyl)-1H-pyrrolo[2,3-b]pyridin-5-yl]phenyl]-N-[5-(trifluoromethyl)-3-pyridyl]acetamide], the IC50 in assay [1] and in assay [2] was 0.0001 to 10 µM throughout.
Consider `COc1ncc(NC(=O)Cc2ccc(-c3cnc(Nc4cnn(C)c4)nc3)cc2)cc1C(F)(F)F` [Compound P-0138, N-[6-methoxy-5-(trifluoromethyl)-3-pyridyl]-2-[4-[2-[(1-methylpyrazol-4-yl)amino]pyrimidin-5-yl]phenyl]acetamide], for which the half-maximal inhibitory concentration (IC50) in assay [1] and in assay [2] was 0.0001 to 10 µM each time.
Consider `Cn1cc(Nc2ncc(-c3ccc(CC(=O)Nc4cccc(C(C)(C)C#N)c4)cc3)cn2)cn1` [Compound P-0158, N-[3-(1-cyano-1-methyl-ethyl)phenyl]-2-[4-[2-[(1-methylpyrazol-4-yl)amino]pyrimidin-5-yl]phenyl]acetamide], for which the IC50 in assay [1] and in assay [2] was 0.0001 to 10 µM throughout.
Regarding `Cn1cc(Nc2ncc(-c3ccc(CC(=O)Nc4ccc(C(C)(C)C)nc4)cc3)cn2)cn1` [Compound P-0143, N-(6-tert-butyl-3-pyridyl)-2-[4-[2-[(1-methylpyrazol-4-yl)amino]pyrimidin-5-yl]phenyl]acetamide], the IC50 in assay [1] and in assay [2] was 0.0001 to 10 µM in each case.
Consider `CCn1cc(Nc2ncc(-c3ccc(CC(=O)Nc4cnc(Cl)c(C(F)(F)F)c4)cc3)cn2)cn1` [Compound P-0165, N-[6-chloro-5-(trifluoromethyl)-3-pyridyl]-2-[4-[2-[(1-ethylpyrazol-4-yl)amino]pyrimidin-5-yl]phenyl]acetamide], for which the IC50 in assay [1] and in assay [2] was 0.0001 to 10 µM in each case.
For the molecule `Cn1cc(Nc2ncc(-c3ccc(CC(=O)Nc4cnc(Cl)c(C(F)(F)F)c4)c(F)c3)cn2)cn1` [Compound P-0092, N-[6-chloro-5-(trifluoromethyl)-3-pyridyl]-2-[2-fluoro-4-[2-[(1-methylpyrazol-4-yl)amino]pyrimidin-5-yl]phenyl]acetamide], the IC50 in assay [1] and in assay [2] was 0.0001 to 10 µM throughout.
Regarding `Cn1cc(Nc2ncc(-c3ccc(CC(=O)Nc4ccc(C(F)(F)F)nc4)c(F)c3)cn2)cn1` [Compound P-0110, 2-[2-fluoro-4-[2-[(1-methylpyrazol-4-yl)amino]pyrimidin-5-yl]phenyl]-N-[6-(trifluoromethyl)-3-pyridyl]acetamide], the half-inhibitory concentration (IC50) in assay [1] and in assay [2] was 0.0001 to 10 µM each time.
Consider `Cn1cc(Nc2ncc(-c3ccc(CC(=O)Nc4ccc(C(C)(C)C#N)nc4)c(F)c3)cn2)cn1` [Compound P-0108, N-[6-(1-cyano-1-methyl-ethyl)-3-pyridyl]-2-[2-fluoro-4-[2-[(1-methylpyrazol-4-yl)amino]pyrimidin-5-yl]phenyl]acetamide], for which the half-maximal inhibitory concentration (IC50) in assay [1] and in assay [2] was 0.0001 to 10 µM each time.
In the case of `COc1ncc(NC(=O)Cc2ccc(-c3cnc(Nc4cn(C)cn4)nc3)cc2)cc1C(F)(F)F` [Compound P-0149, N-[6-methoxy-5-(trifluoromethyl)-3-pyridyl]-2-[4-[2-[(1-methylimidazol-4-yl)amino]pyrimidin-5-yl]phenyl]acetamide], the IC50 in assay [1] and in assay [2] was 0.0001 to 10 µM throughout.
With `Cn1cc(Nc2ncc(-c3ccc(CC(=O)Nc4ccnc(S(C)(=O)=O)c4)cc3)cn2)cn1` [Compound P-0154, 2-[4-[2-[(1-methylpyrazol-4-yl)amino]pyrimidin-5-yl]phenyl]-N-(2-methylsulfonyl-4-pyridyl)acetamide], the IC50 in assay [1] and in assay [2] was 0.0001 to 10 µM throughout.
Regarding `COc1ncc(NC(=O)Cc2cc(F)c(-c3cnc4[nH]nc(C)c4c3)cc2F)cc1C(F)(F)F` [Compound P-0176, 2-[2,5-difluoro-4-(3-methyl-1H-pyrazolo[3,4-b]pyridin-5-yl)phenyl]-N-[6-methoxy-5-(trifluoromethyl)-3-pyridyl]acetamide], the concentration for half-maximal inhibition (IC50) in assay [1] and in assay [2] was 0.0001 to 10 µM in each case.
Consider `Cn1cc(Nc2ncc(-c3ccc(CC(=O)Nc4cc(C(F)(F)F)ncn4)cc3)cn2)cn1` [Compound P-0135, 2-[4-[2-[(1-methylpyrazol-4-yl)amino]pyrimidin-5-yl]phenyl]-N-[6-(trifluoromethyl)pyrimidin-4-yl]acetamide], for which the IC50 in assay [1] and in assay [2] was 0.0001 to 10 µM each time.
In the case of `N#Cc1cc(-c2cc3cc(-c4ccc(CC(=O)Nc5cc(C(F)(F)F)ccn5)cc4F)cnc3[nH]2)ccn1` [Compound P-0194, 2-[4-[2-(2-cyano-4-pyridyl)-1H-pyrrolo[2,3-b]pyridin-5-yl]-3-fluoro-phenyl]-N-[4-(trifluoromethyl)-2-pyridyl]acetamide], the IC50 in assay [1] and in assay [2] was 0.0001 to 10 µM each time.
With `Cn1cc(Nc2ncc(-c3ccc(CC(=O)Nc4cnc(F)c(C(C)(F)F)c4)cc3)cn2)cn1` [Compound P-0104, N-[5-(1,1-difluoroethyl)-6-fluoro-3-pyridyl]-2-[4-[2-[(1-methylpyrazol-4-yl)amino]pyrimidin-5-yl]phenyl]acetamide], the IC50 in assay [1] and in assay [2] was 0.0001 to 10 µM throughout.
Consider `Cc1ncc(NC(=O)Cc2ccc(-c3cnc(Nc4cnn(C)c4)nc3)cc2F)cc1C(F)(F)F` [Compound P-0091, 2-[2-fluoro-4-[2-[(1-methylpyrazol-4-yl)amino]pyrimidin-5-yl]phenyl]-N-[6-methyl-5-(trifluoromethyl)-3-pyridyl]acetamide], for which the IC50 in assay [1] and in assay [2] was 0.0001 to 10 µM each time.

The values above are taken from US10160747B2, “Compounds and methods for kinase modulation, and indications therefor” (Plexxikon Inc., priority 2016, dated 2018).
